# Earlier results in patent US9919015B2, “Composition and method for inhibiting herpesviridae infections” (VIRATEC PTY LTD, priority 2005, dated 2018).
# Read-outs that look alike come from different tables or passages of the source.
# Assays:
# [1] = tested on: primary herpetic gingivostomatitis; details: Primary Herpetic Stomatitis
# [2] = tested on: recurrent herpes labialis; details: treatment commenced within 1 hour; Rabon et al. (1989)
# [3] = tested on: recurrent genital herpetic infection; details: for healing rate, oral acyclovir: Nilsen et al. (1982); for healing rate, topical acyclovir: Corey et al. (1982)
# [4] = tested on: herpes zoster; details: Esmann et al. (1982); Bean et al (1983)
# [5] = tested on: Oral Hairy Leukoplakia (EBV)
compound,measurement,setting,value
"Nc1nc2c(ncn2COCCO)c(=O)[nH]1 [Acyclovir, acyclovir]",Expected healing time Acyclovir (upper end),[1],≤ 4 weeks
same,Expected healing time Acyclovir,"[1]; treated symptomatically or with acyclovir, listed as acyclovir",10 to 28 days
same,complete healing with acyclovir,[2],7 to 8 days
same,time to analgesia with acyclovir,[2],1 to 2 days
same,"healing rate, oral acyclovir",[3],5 days oral
same,"healing rate, oral acyclovir",[3]; listed as acyclovir,5 days
same,"healing rate, topical acyclovir",[3],7.4 days topical
same,"healing rate, topical acyclovir",[3]; listed as acyclovir,7.4 days
same,time to initial crusting with acyclovir,[4],2 to 3 days
same,"response, subjects","[5]; oral acyclovir, after 10 days, Resnick et al (1988)",5/6
same,response time with oral acyclovir,"[5]; Herbst et al. (1989), Resnick et al (1988)",10-20 days - oral
same,response time with oral acyclovir,"[5]; Herbst et al. (1989), Resnick et al (1988), listed as acyclovir",10 to 20 days
same,"resolution of OHL, subjects","[5]; systemic acyclovir, after 20 days, Herbst et al. (1989)",12/14
